{"source": "patent US20200347136A1", "about": "“CONSTRAINED CYCLIC PEPTIDES AS INHIBITORS OF THE CD2:CD58 PROTEIN-PROTEIN INTERACTION FOR TREATMENT OF DISEASES AND AUTOIMMUNE DISORDERS” (Board of Supervisors for the University of Louisiana System, priority 2019, published 2020)", "key": {"MCF-10A cells": {"tested_on": "MCF-10A cells", "assay": "Cell Titer-Glo antiproliferative assay, MCF-10A", "type": "cell-based", "details": "antiproliferative activity, non-cancerous breast epithelial cell line", "description": "(§1) Antiproliferative activity of grafted cyclic peptides. Antiproliferative activity of the designed grafted peptides was evaluated in different HER2-overexpressing cancer cell lines as well as HER2 negative cancer cell lines.\n(§2) Table 1. […] Single letter amino acid code was used for peptide sequence. Lower case letters refer to D amino acids and capital letters refer to L amino acids. Chirality of Anapa was indicated with R and S configuration in italics. Antiproliferative activity of peptides in cancer cell lines are given as IC50 in μM. Disulfide bonds between the cysteines are underlined."}, "BT-474 cells": {"tested_on": "BT-474 cells", "details": "read-out: IC50 BT-474 (HER2+); antiproliferative activity", "description": "as §1, §2"}, "Calu-3 cells": {"tested_on": "Calu-3 cells", "details": "read-out: IC50 Calu-3 (HER2+); antiproliferative activity", "description": "as §1, §2"}, "MCF-7 cells": {"tested_on": "MCF-7 cells", "details": "read-out: IC50 MCF-7 (HER2−); antiproliferative activity", "description": "as §1, §2"}, "A549 cells": {"tested_on": "A549 cells", "details": "read-out: IC50 A549 (HER2+); antiproliferative activity", "description": "as §1, §2"}, "[1]": {"tested_on": "A549 Red-FLuc lung tumors", "assay": "experimental metastasis model of lung cancer, A549 Red-FLuc cells"}, "T cells (splenocytes)": {"tested_on": "T cells (splenocytes)", "assay": "immunogenicity, flow cytometry T-cell proliferation (Ki-67) in primed BALB/c mice", "type": "in vivo", "details": "BALB/c mice primed 6 mg/kg; splenocytes with 5 μM peptide, 48 h", "description": "SFTI-G5 is not immunogenic in mice. Molecules that are not endogenous to the body can trigger cellular responses when administered. […] Ki-67 is a proliferation marker of nuclear protein and has been used to measure specific T-cell responses. […] The animals were sacrificed on the 13th day, and splenocytes were harvested and cultured in vitro from both control and primed groups, either in the presence or absence of the peptide. Concanavalin A (5 μg/mL), an antigen-independent mitogen known to induce T-cell proliferation, was used as a positive control."}, "[2]": {"tested_on": "phosphorylation of HER2 and Akt", "assay": "Western blot of HER2 and Akt phosphorylation, A549 cells", "type": "cell-based", "description": "Binding to ECD protein at different concentrations. Kinetics of association and dissociation are shown. Inset saturation curve for binding. […] EGFR was immobilized on CM5-chip and HER2 was added as analyte. Binding of HER2 to EGFR is shown in red. […] Control represents cells without the peptide and without one of the antibodies (B & E). […] Control represents cells without the peptide and without one of the antibodies (F). […] Nucleus was stained with DAPI. III) Quantification of PLA assay fluorescence intensity. 3-6 different fields were chosen, and intensity of red fluorescence was measured using ImageJ software. […] Scale 20 μm. Magnification 40×. *p<0.05, ** p<0.01. Mean±SEM. […] The visualization of GAPDH was used to ensure equal sample loading in each lane. […] II) Quantification of Western blot images using densitometry. *p<0.05 *** P<0.001. Mean±SEM.\nThe phosphorylation of HER2 was measured by the p-HER2 monoclonal antibody. […] Lapatinib, an EGFR and HER2 kinase dual inhibitor were used as a positive control."}, "[3]": {"assay": "disulfide bond stability, CD spectrum with dithiothreitol", "type": "physicochemical", "details": "presence versus absence of dithiothreitol"}, "[4]": {"assay": "thermal stability by circular dichroism and MALDI-TOF", "type": "physicochemical", "details": "CD and mass spectrum, 25-75° C., in solution", "description": "To confirm further, a mass spectrum of SFTI-G5 was obtained from the solution used to record the CD spectrum at different temperatures. Freeze-dried samples of different temperatures were analyzed via MALDI-TOF mass spectrometry."}, "Calu-3 xenograft tumors": {"tested_on": "Calu-3 xenograft tumors", "assay": "Calu-3 xenograft model of lung cancer in nude mice", "type": "in vivo", "description": "5×10^6 Calu-3 cells suspended in serum-free medium were subcutaneously inoculated in left flank region of mice to induce lung cancer (Foxn1-nude). Peptide (8 mg/kg) was administered via intratumoral injection three times a week after 10 days, Pertuzumab was injected with a loading dose of 12 mg/kg and then 6 mg/kg as maintenance dose intraperitonially once a week, Trastuzumab and pertuzumab combination was injected at a loading dose of 12 mg/kg and then 6 mg/kg as maintenance dose once a week. […] For comparison, pertuzumab (up triangle, blue) and trastuzumab and pertuzumab combination (down triangle, red) also shown (with standard errors for n=6). […] C) PPI inhibition assessed by PLA on tumor tissue sample. […] Tumor sections were homogenized, and protein was extracted and subjected to Western blot. […] (** p<0.01). Mean±SEM.\nHER2 dimerization inhibitors such as pertuzumab and trastuzumab and pertuzumab combinations were also administered as control groups (FIG. 11A). […] During the course of the experiment, the tumor size in the control xenograft group without any treatment continued to increase, reaching a diameter of ˜9 mm in 28 days (FIG. 11B).\nTo evaluate the phosphorylation of HER2 protein, Western blot analysis was performed on frozen tumor samples."}, "[5]": {"molecular_target": "T1, HER2 ECD protein (domains I-IV) (Homo sapiens, UniProt P04626)", "T1 construct": "immobilizing HER2 ECD protein (domains I-IV, 620 amino acids)", "T1 sequence (P04626 23-652 limits assumed)": "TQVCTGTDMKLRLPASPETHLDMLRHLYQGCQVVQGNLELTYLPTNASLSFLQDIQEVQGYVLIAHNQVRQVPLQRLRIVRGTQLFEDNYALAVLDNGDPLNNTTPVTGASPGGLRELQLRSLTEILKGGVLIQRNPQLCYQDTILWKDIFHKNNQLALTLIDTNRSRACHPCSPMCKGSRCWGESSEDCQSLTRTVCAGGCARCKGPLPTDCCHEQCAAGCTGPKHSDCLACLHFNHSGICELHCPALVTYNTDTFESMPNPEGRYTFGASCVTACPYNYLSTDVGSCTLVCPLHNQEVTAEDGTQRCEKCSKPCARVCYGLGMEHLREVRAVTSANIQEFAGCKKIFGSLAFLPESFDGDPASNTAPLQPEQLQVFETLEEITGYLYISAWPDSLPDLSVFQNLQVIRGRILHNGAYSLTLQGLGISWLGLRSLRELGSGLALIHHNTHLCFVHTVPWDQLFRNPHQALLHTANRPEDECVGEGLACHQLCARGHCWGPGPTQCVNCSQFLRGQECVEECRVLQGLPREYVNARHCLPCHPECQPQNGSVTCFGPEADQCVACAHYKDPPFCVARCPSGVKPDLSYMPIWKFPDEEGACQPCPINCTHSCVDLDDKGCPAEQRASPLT", "assay": "SPR binding to immobilized HER2 ECD", "details": "analyte over immobilized HER2 ECD", "method": "Binding affinities were obtained by global fitting analysis of the titration curve to the 1:1 Langmuir interaction model, and the Kd value was calculated."}, "[6]": {"tested_on": "CD2:CD58 interaction (SRBC expressing CD58 / Jurkat cells expressing CD2)", "assay": "E-rosetting assay, sheep red blood cells / Jurkat T cells", "type": "cell-based", "method": "Peptides were added to AET-treated sheep red blood cells (SRBC) (expressing CD58 protein) first, and Jurkat cells (expressing CD2 protein) labeled with BCECF were added later. Cells with five or more SRBC bound were counted as rosettes. Values are percent inhibition of peptide-treated cells and are expressed as the mean of three experimental values. Error bars represent standard error of the mean (SEM).\nThe ability of peptides to inhibit cell adhesion was evaluated using E-rosetting assay via interaction between sheep red blood cells (SRBC) expressing CD58 and Jurkat T cells expressing CD2 protein. When these cells are incubated, they adhere to each other. Each Jurkat cell adheres to many sheep red blood cells. Five or more SRBC adhering to a Jurkat cell is counted as positive E-rosetting."}, "[7]": {"tested_on": "collagen-induced arthritis", "details": "cited from earlier work"}}, "note": "“Also recorded” adds a separate entry of the source."}
{"smiles": "CC[C@H](C)[C@@H]1NC(=O)[C@H](CCCNC(=N)N)NC(=O)C[C@@H](c2cccc3ccccc23)NC(=O)[C@@H]2CSSC[C@H](NC(=O)C[C@@H](c3cccc4ccccc34)NC(=O)[C@H](CCCNC(=N)N)NC(=O)[C@@H]3CCCN3C(=O)[C@@H]3CCCN3C1=O)C(=O)N[C@@H](Cc1ccccc1)C(=O)N1CCC[C@H]1C(=O)N[C@@H](CC(=O)O)C(=O)N[C@@H](CC(=O)O)C(=O)N[C@@H](Cc1ccccc1)C(=O)N2", "note": "[SFTI-G5, Cyclo(C(S-X)RIPPR(S-X)CFPDDF)]", "values": [{"measurement": "IC50", "setting": "MCF-10A cells", "value": "> 50000", "unit": "nM"}, {"measurement": "IC50", "setting": "BT-474 cells", "value": 280, "unit": "nM"}, {"measurement": "IC50", "setting": "Calu-3 cells", "value": 73, "unit": "nM"}, {"measurement": "IC50", "setting": "MCF-7 cells", "value": "25600 ± 1460", "unit": "nM"}, {"measurement": "IC50", "setting": "A549 cells", "value": 369, "unit": "nM"}, {"measurement": "rate of tumor growth, total flux (p/s)", "setting": "[1]; 6 mg/kg i.v. twice a week, vs vehicle", "value": "decreased; also recorded: significant reduction in tumor growth"}, {"measurement": "H&E histology of lungs: enlarged hyperchromatic nuclei, eosinophilic cytoplasm", "setting": "[1]; vs vehicle control", "value": "there were less"}, {"measurement": "immune response: Ki-67 expression in CD3+ subsets", "setting": "T cells (splenocytes)", "value": "did not show any significant immune response; also recorded: non-immunogenic"}, {"measurement": "total HER2 protein levels", "setting": "[2]", "value": "no significant change in total HER2 protein levels"}, {"measurement": "phosphorylation of Akt", "setting": "[2]; 1 μM, 40 h, vs control", "value": "significantly inhibited the phosphorylation of Akt"}, {"measurement": "phosphorylation of HER2 kinase", "setting": "[2]; 1 μM, 40 h, vs control", "value": "significantly decreases the phosphorylation of HER2 kinase"}, {"measurement": "CD spectrum on addition of DTT", "setting": "[3]", "value": "sharp change in CD spectrum"}, {"measurement": "thermal stability", "setting": "[4]", "value": "stable at 75 °C; also recorded: stable up to 75 °C"}, {"measurement": "tumor growth", "setting": "Calu-3 xenograft tumors; Calu-3 xenograft, SFTI-G5 8 mg/kg intratumoral thrice a week, antibodies 12 then 6 mg/kg once a week", "value": "delay in tumor growth that was significant compared to control; also recorded: delayed tumor growth"}, {"measurement": "tolerability, body weight and clinical observations", "setting": "Calu-3 xenograft tumors; SFTI-G5 monotherapy dosing schedule", "value": "well-tolerated"}, {"measurement": "EGFR:HER2 dimerization in tumor sections (PLA)", "setting": "Calu-3 xenograft tumors; vs control tumor sample", "value": "markedly diminished signals from dimerization"}, {"measurement": "HER2 phosphorylation in tumor samples (Western blot)", "setting": "Calu-3 xenograft tumors; vs vehicle treatment", "value": "significant inhibition of HER2 phosphorylation"}]}
{"smiles": "NCCCC[C@H](N)C(=O)NC(CC(=O)N[C@@H](Cc1ccccc1)C(=O)O)c1cccc2ccccc12", "note": "(stereo partly shown) [Control, H2N-K(X)F-OH]", "values": [{"measurement": "SPR response on HER2 ECD", "setting": "[5]", "value": "no SPR response was recorded"}]}
{"smiles": "CC[C@H](C)[C@@H]1NC(=O)[C@H](CC(=O)O)NC(=O)[C@H](CC(=O)O)NC(=O)[C@@H]2CCCN2C(=O)[C@H]2CCCN2C(=O)[C@H](CC(=O)O)NC(=O)[C@H](Cc2ccc(O)cc2)NC(=O)[C@H]([C@@H](C)CC)NC(=O)[C@H](CO)NC(=O)[C@H](CCCCN)NC1=O", "note": "[Peptide 6, Cyclo(SIYDpPDDIK)]", "values": [{"measurement": "IC50", "setting": "[6]", "value": "9.4 ± 0.3", "unit": "nM"}, {"measurement": "histopathology of paws", "setting": "[7]; 0.5 mg/kg", "value": "clear joint space with normal cartilage interface"}, {"measurement": "anti-CII antibodies in sera", "setting": "[7]; 0.5 and 1 mg/kg i.v.", "value": "dose-dependent reduction"}, {"measurement": "acute clinical signs of illness / direct toxicity", "setting": "[7]; DBA/1 mice, during dosing", "value": "minimal, if any, direct toxicity"}]}
